According to patent US20250075235A1, “PRODUCTION OF ETHANOL WITH ONE OR MORE CO-PRODUCTS IN YEAST” (Braskem S.A., priority 2020, published 2025):

How the values were obtained:
[1] = system: industrial ethanol-producing yeast strain PE-2; experiment: Alcohol tolerance experiment: sugar (glucose) consumption of yeast cultures with added alcohols; format: cell-based, Saccharomyces cerevisiae; conditions: for Sugar Consumption: PE-2, YNB medium, 40 g/L glucose, 32° C., 8-9 hours, no consumption = lethal concentration; for Toxicity related to ethanol (times more inhibition than ethanol): ratio of sugar consumption inhibition per unit of alcohol to that of ethanol; for Sugar consumption inhibition per unit of alcohol regarding the Control (+) condition (no alcohol added) / Slope (linear regression of sugar consumption inhibition against alcohol concentration): samples two hours after inoculation; for Slope (linear regression of sugar consumption inhibition against alcohol concentration): alcohol concentration in g/L
Experimental: An alcohol tolerance experiment was conducted to understand the negative effects of n-propanol (i.e., 1-propanol), 2-propanol, and 2-butanol compared to ethanol in Saccharomyces cerevisiae. Ethanol, which is a natural product (or native product) produced during sugar-ethanol fermentation is generally well-tolerated by yeast such as S. cerevisiae. However, existing approaches to produce non-natural chemicals such as C3, C4, or C5 alcohols, ketones, organic acids, or other non-natural products (e.g., alcohols other than ethanol) by using genetically modified yeast are usually impacted negatively by the higher toxicity compared to ethanol of such non-natural chemicals or alcohols (e.g., n-propanol and 2-propanol) to the yeast cell-growth and/or performance.
Several concentrations of n-propanol, 2-propanol, 2-butanol and ethanol was tested in yeast cultures. The experiment was conducted using the industrial ethanol-producing yeast strain PE-2 in a 250 mL shaken flask with 50 mL of YNB medium having 40g/L glucose at 32° C. The culture was conducted during 8-9 hours with an initial OD600 nm=12 (OD=optical density). Samples were taken in adequate intervals and analyzed by HPLC to measure glucose, ethanol, n-propanol, 2-propanol and 2-butanol. The experiment was performed according to the parameters in Table 13, in duplicate. The conditions at which no sugar consumption was observed were considered a lethal concentration and were excluded from the analysis.
The percentage of glucose consumption inhibition was assessed for various concentrations of alcohols. Samples were tested two hours after inoculation. At this point, glucose had not been totally consumed.

[2] = system: industrial ethanol-producing yeast strain PE-2; experiment: Laboratory simulation of yeast sugar-ethanol fermentation with exogenously added alcohols; format: cell-based, Saccharomyces cerevisiae; conditions: 1 L bioreactor, 224 g/L glucose, pH 4.5, 32° C., 70 hours; about 16 g alcohol added
Experimental: The experiment was performed using a 1 L bioreactor with 0.7 L as a final volume. The pH was controlled at 4.5 by adding NaOH 25% w/w, 32° C. temperature and 300 rpm stirring. The industrial ethanol-producing yeast strain used was PE-2, with an initial pitch of 0.7 g/L DWC and the culture medium was YNB without amino acids. The final sugar concentration was 224 g/L glucose. The experiment was performed under aseptic conditions. The bioreactor was first filled with 650 ml of YNB medium plus sugar, and after pH and temperature stabilization, a suspension of 50 mL with the yeast inoculum was added into the bioreactor. […] Each solution followed the profile: 10 hours since inoculation, 0.2 mL/min; from 11 hours to 15 hours, 0.4 mL/min; from 16 hours to 40 hours, 0.6 mL/min; and from 41 hours to 46 hours, 0.2 mL/min. This profile was added to simulate an ethanol production profile of PE-2 yeast. The fermentation was ended with 70 hours of fermentation run.

Compound | Sugar Consumption ([1]; alcohol 20 g/L) | Sugar Consumption ([1]; alcohol 40 g/L) | Sugar Consumption ([1]; alcohol 60 g/L) | Sugar Consumption ([1]; alcohol 80 g/L) | Toxicity related to ethanol (times more inhibition than ethanol) [1] | Sugar consumption inhibition per unit of alcohol regarding the Control (+) condition (no alcohol added) [1] | Slope (linear regression of sugar consumption inhibition against alcohol concentration) [1] | Ethanol produced [2] | Ethanol yield [2] | Volumetric productivity [2] | Sugar Consumption ([1]; alcohol 120 g/L)
2-butanol | Yes | Yes | No | No | 2.94 | 1.82% per g · L^−1 of alcohol | 0.0182 |  |  |  | 
CCO [Condition 1, ethanol] |  |  |  |  |  |  |  | 80.9 g | 0.5 g/g | 1.4 g/Lh | 
CCO [Ethanol, ethanol] | Yes | Yes | Yes | Yes |  | 0.62% per g · L^−1 of alcohol | 0.0062 |  |  |  | Yes
n-propanol | Yes | Yes | Yes | No | 2.16 | 1.34% per g · L^−1 of alcohol | 0.0134 |  |  |  | 
CC(C)O [2-Propanol, isopropyl alcohol] | Yes | Yes | Yes | Yes | 1.45 | 0.90% per g · L^−1 of alcohol | 0.009 |  |  |  | 
